Laboratory results: PMC8304783, “Antiadhesive Properties of Imidazolium Ionic Liquids Based on (−)-Menthol Against Candida spp” (International Journal of Molecular Sciences, 2021)
≈ marks a conversion by molar mass, not a printed value.

Tests used:
Type in all cases: cell-based
[1] = tested on: sheep erythroid PMs; assay: Hemolysis assay; conditions: AMB conc. 0.25 µM; sheep RBCs; 1% SDS = 100% hemolysis
Protocol: To examine any possible toxic effect towards animal cells, ILs were tested for their lytic activity on sheep erythroid PMs, in comparison to AMB (Table 3). For this part of study, higher concentrations were selected, corresponding to MFC values of tested fungi (12.5; 25 and 50 µM in case of ILs, and 0.25; 0.5 and 1 µM in case of AMB, Table 1). The compounds were ranked in terms of hemolytic activity as follows: 1a > 1b > 2a. IL with alkoxymethyl chain (2a) produced <5% hemolysis, regardless of the concentration used. Compounds with alkyl substituents (1a and 1b) were more hemolytic in 12.5 than in 25 µM concentrations, and in the highest concentration (50 µM), both compounds produced >10% and >5% hemolysis, respectively.
ILs were tested for hemolytic activity, as described previously. Briefly, 5 mL of fresh sheep blood was centrifuged (2000 rpm, 15 min), washed with PBS and resuspended in PBS to achieve hematocrit level of 50%. Red blood cells (RBCs) were treated with ILs (concentrations = 12.5, 25 and 50 µM) for 2 h at 37 °C. Afterwards, RBCs were centrifuged (2000 rpm, 5 min) and the absorbance of the supernatant was measured at 540 nm (ASYS UVM 340 Biogenet). The percentage of hemolysis was determined in comparison to the hemoglobin absorbance released by a 1% SDS solution (100% hemolysis).

[2] = tested on: C. krusei ATCC6258; assay: Minimal inhibitory and fungicidal concentrations (broth microdilution, CLSI M27-A3 modified); conditions: Pichia kudriavzevii, 28 °C
Protocol: (§1) Experiments were performed according to the Clinical and Laboratory Standards Institute (2008), 3rd ed. M27-A3 [51], with modifications described previously. Briefly, MICs were determined by serially diluting ILs in YPD medium in sterile 96-well plates (Sarstedt) and inoculating with fungal suspensions (final OD600 per well = 0.01). After incubation (48 h; 28 °C), the OD600 was measured (ASYS UVM 340 Biogenet). […] Each well was then replated on YPD agar and incubated for 5 days at 28 °C.

[3] = tested on: C. glabrata ATCC90030; assay: as above; conditions: Nakaseomyces glabratus, 28 °C
Protocol: as §1

[4] = tested on: C. parapsilosis CBS10947; assay: as above; conditions: Lodderomyces parapsilosis, 28 °C
Protocol: as §1

[5] = tested on: C. albicans SC5314; assay: as above; conditions: Candida albicans, 28 °C
Protocol: as §1

[6] = tested on: C. glabrata; assay: Detachment of adherent cells from polystyrene (crystal violet); conditions: C. glabrata on polystyrene, 2 h treatment; highest concentration (4 × MIC)
Protocol: (§2) Thus, for the evaluation of ILs on fungal adhesion, higher concentrations were used, corresponding to 1, 2 and 4 times the MIC90 values (Figure 1).
(§3) Figure 1 Detachment of adherent Candida spp. cells after 2 h incubation on polystyrene surfaces by ionic liquids (ILs) (A) or amphotericin B (AMB) (B) (means ± SD; n = 3). Results are presented as percentage of adherent cells relative to untreated controls (100% adhesion). Statistical analysis of detachment at each concentration was performed towards corresponding control experiments (fungi untreated by ILs or AMB = 100% adhesion) (*, p < 0.05 and **, p < 0.01).
(§4) Post-adherence treatment with ILs was performed in a similar manner to that described previously by our team. Candida spp. suspensions were prepared by centrifuging YPD-grown cultures and resuspending fungal mass in PBS to an OD600 = 0.6. Sterile 96-well plates were inoculated with the prepared suspensions and incubated for 2 h at 37 °C to induce fungal adhesion. Afterwards, adherent cells were washed with PBS to remove planktonic cells and treated with ILs (concentrations equivalent to 1, 2 or 4 × MIC90 for each fungi) for 2 h at 37 °C. Then, each well was washed with PBS and adherent cells were fixed with 0.1% CV solution for 5 min, and washed with PBS. Cells were then treated with a solution of isopropanol 0.04 N HCL with 0.1% SDS to permeabilize adherent cells and release the CV dye. The absorbance of CV was measured at 590 nm (ASYS UVM 340 Biogenet). The percentage of cells that were removed was determined in comparison to adherent cells treated with PBS only (designated 100% adhesion).

[7] = tested on: C. albicans; assay: as above; conditions: C. albicans on polystyrene, 2 h treatment; highest concentration (4 × MIC)
Protocol: as §2, §3, §4

[8] = tested on: C. krusei; assay: as above; conditions: C. krusei on polystyrene, 2 h treatment; highest concentration (4 × MIC)
Protocol: as §2, §3, §4

[9] = tested on: C. parapsilosis; assay: as above; conditions: C. parapsilosis on polystyrene, 2 h treatment; highest concentration (4 × MIC)
Protocol: as §2, §3, §4

[10] = tested on: C. glabrata; assay: Plasma membrane permeabilization (propidium iodide staining); conditions: 2 h treatment at MIC90, PI staining, mean ± SD, n = 3
Protocol: (§5) We tested ILs for their activity in permeabilizing fungi plasma membranes (PMs), by treating cells with concentrations of ILs corresponding to their MIC90 values (Table 2).
(§6) The assessment of PM permeability was performed as described previously, with modifications. Briefly, 3 mL of Candida spp. cell suspensions (OD600 = 0.1) in PBS were mixed with ILs (concentrations equivalent to MIC90 against each fungi). Samples were incubated for 2 h at 37 °C, washed with PBS and stained with PI to the final dye concentration of 6 × 10^−6 M for 5 min. Then, cell suspensions were washed with PBS and observed under the Zeiss Axio Imager A2 microscope equipped with the Zeiss Axiocam 503 mono microscope camera and Zeiss HBO100 mercury lamp. The percentage of permeabilized cells was evaluated by counting PI positive cells out of one hundred in three independent repetitions for each experiment.

[11] = tested on: C. albicans; assay: as above; conditions: 2 h treatment at MIC90, PI staining, mean ± SD, n = 3
Protocol: as §5, §6

[12] = tested on: C. krusei; assay: as above; conditions: 2 h treatment at MIC90, PI staining, mean ± SD, n = 3
Protocol: as §5, §6

[13] = tested on: C. parapsilosis; assay: as above; conditions: 2 h treatment at MIC90, PI staining, mean ± SD, n = 3
Protocol: as §5, §6

[14] = 120 h, replated on YPD agar, 5 days, read-out: Minimal fungicidal concentration (MFC)
[15] = ≥90% growth inhibition, 48 h, YPD, read-out: Minimal inhibitory concentration (MIC90)

`C[C@@H]1[C@H](O)[C@@H](C)/C=C/C=C/C=C/C=C/C=C/C=C/C=C/[C@H](O[C@@H]2O[C@H](C)[C@@H](O)[C@H](N)[C@@H]2O)C[C@@H]2O[C@](O)(C[C@@H](O)C[C@@H](O)[C@H](O)CC[C@@H](O)C[C@@H](O)CC(=O)O[C@H]1C)C[C@H](O)[C@H]2C(=O)O` [AMB, amphotericin B, reference compound] showed a Hemolytic activity [1] of 86.7 ± 0.43 %, an MFC [2, 14] of 1 µM (≈ 0.924 µg/mL) and an MIC90 [2, 15] of 0.5 µM (≈ 0.462 µg/mL). It also gave an MFC [3, 14] of 0.5 µM (≈ 0.462 µg/mL), an MIC90 [3, 15] of 0.25 µM (≈ 0.231 µg/mL) and an MFC [4, 14] of 0.5 µM (≈ 0.462 µg/mL). It also gave an MIC90 [4, 15] of 0.25 µM (≈ 0.231 µg/mL), an MFC [5, 14] of 0.5 µM (≈ 0.462 µg/mL) and an MIC90 [5, 15] of 0.25 µM (≈ 0.231 µg/mL). The Reduction of adhesion [6] was ~ 15%, the Reduction of adhesion [7] was ~ 27% and the Reduction of adhesion [8] was ~ 20%. The Reduction of adhesion [9] was ~ 20%, the “Percentage of cells with permeabilized PMs” value (from here on “Percentage of cells”) [10] was 43.2 ± 2.15 % and the “Percentage of cells” value [11] was 37.3 ± 4.17 %. The “Percentage of cells” value [12] was 38.2 ± 10.7 % and the “Percentage of cells” value [13] was 32.38 ± 3.15 %.
